Publication PMC6550366, “High-Throughput Recovery and Characterization of Metagenome-Derived Glycoside Hydrolase-Containing Clones as a Resource for Biocatalyst Development” (mSystems, 2019)

System: T1, C11-GH1
T1 construct: gene C11_GH1; Full ORF in pET28 (NdeI/XhoI), E. coli BL21(DE3), Ni-NTA; text says C-terminal His tag but reverse primer carries a stop codon; Primer-derived: N-term (M)VAFSDKFL (native GTG start), C-term SRNGKNL, nucleophile region LPLIITENGMADND
Experiment: fluorogenic hydrolysis, MU release
Format: biochemical
Settings: 20 mM HEPES, 300 mM NaCl, pH 7.0, 37°C; read-out: Mean Km (mM) ± SD
Text: fluorogenic hydrolysis, MU release on C11-GH1

Km | Structure (SMILES)
0.1 ± 0.02 mM | Cc1cc(=O)oc2cc(O[C@@H]3O[C@H](CN=[N+]=[N-])[C@H](O)[C@H](O)[C@H]3O)ccc12 [6-N3-Gal MU, 4-methylumbelliferyl 6-azido-6-deoxy-β-D-galactoside]
0.05 ± 0.01 mM | Cc1cc(=O)oc2cc(O[C@@H]3O[C@H](CN=[N+]=[N-])[C@@H](O)[C@H](O)[C@H]3O)ccc12 [6-N3-Glc MU]
0.05 ± 0.02 mM | Cc1cc(=O)oc2cc(O[C@@H]3O[C@H](CO)[C@H](O)[C@H](O)[C@H]3O)ccc12 [Gal MU]
0.2 ± 0.03 mM | Cc1cc(=O)oc2cc(O[C@@H]3O[C@H](CO)[C@@H](O)[C@H](O)[C@H]3O)ccc12 [Glc MU]
